Experimental data from patent US9707243B2, “Topical composition with vitamin D3” (priority 2014, dated 2017).

Assay: Randomized control study of daily topical application in women with low vitamin D
Assay type: in vivo, human
Conditions: 3 months
Experimental: A study was carried out on 50 women with low vitamin D. The women were healthy and unmarried. Age, weight, height, and detailed medical history were recorded. Meticulous clinical examination was performed to rule out any diseases. A complete blood picture, including serum calcium, phosphorous, alkaline phosphatase, Parathormone and 25 Hydroxy-vitamin D (25OHD), was obtained. Two women had >30 ng/mL of 25OHD and were excluded from the study. The 25-Hydroxy Vitamin D3 level was measured in house by chemiluminescence immunoassay (CLIA), and 30 ng/mL was taken as normal, 21-29 ng/mL as insufficiency and 20 ng/mL as deficiency.
The participants were divided into two groups of 24 women each. All participants unequivocally agreed not to change their dietary habits and life style until the study was over. The group of women participating in the study were asked to apply the topical composition with Vitamin D3. Each gram of the composition delivered 5000 IU of vitamin D3. The second group used 1 gram of aloe vera gel. The participants had no knowledge to which group they belong. A second blood sample was taken at the end of 3 months, and the data was entered in the database and analyzed using a t-test to compare means between the two groups for all the parameters tested before and after topical use of VD and AVG. […]

Q: For `C=C1CC[C@H](O)C/C1=C/C=C1\CCC[C@]2(C)[C@@H]([C@H](C)CCCC(C)C)CC[C@@H]12` [Vitamin D3, cholecalciferol], which “safety of delivery through the dermal route” value is on record?
A: Its value is “can safely be delivered through the dermal route”.
